Measured values taken from PMC8689007, “In Silico Prediction and Bioactivity Evaluation of Chemical Ingredients Against Influenza A Virus From Isatis tinctoria L” (Frontiers in Pharmacology, 2021).
≈ marks a conversion by molar mass, not a printed value. Where “and” joins values, the source holds several entries; their conditions need not be identical. Equal entries are not always repeated. Where two headings read alike, the source gives them in different places.

Experiments:
[1] = tested on: A/HebeiXinhua/SWL1106/2017 (oseltamivir- and amantadine-resistant H1N1)
[2] = tested on: A/HebeiXinhua/SWL1106/2017 (oseltamivir- and amantadine-resistant H1N1); test: microbe, parasite or virus in culture; conditions: Influenza A virus, H1N1, MDCK
[3] = tested on: A/PR/8/34 (H1N1)

Structure (SMILES) | IC50 [1] | IC50 [2] [µg/mL] | SI, selection index (TC50/IC50) [3]
COc1ccc(-c2cc(=O)c3c(O)c(OC)c(OC)cc3o2)cc1O [Eupatorin] | 87.17 ± 5.23 µg/mL and 69.16 ± 2.12 µg/mL and 89.29 ± 5.22 µg/mL | 71.8 ± 6.58 (≈ 209 µM) | 
CCOC(=O)C1=C[C@@H](OC(CC)CC)[C@H](NC(C)=O)[C@@H](N)C1 [Oseltamivir] |  | > 100 | 
NC12CC3CC(CC(C3)C1)C2 [Amantadine] |  | > 100 | 
COc1c(O)cc2oc(-c3ccc(O)cc3)cc(=O)c2c1O [Dinatin] |  |  | >2.66
